This is an account of results in patent publication US12145925B2, “Phthalazine derivatives as inhibitors of PARP1, PARP2, and/or tubulin useful for the treatment of cancer” (THE REGENTS OF THE UNIVERSITY OF CALIFORNIA, priority 2016, dated 2024).

The structures appear in SMILES notation.

This assay concerns the target T1, PARP2 (Homo sapiens, UniProt Q9UGN5).
T1 construct: purchased BPS Bioscience 80552
The experiment in a line: PARP2 enzymatic activity inhibition (BPS Bioscience PARP2 Assay Kit). As to conditions: incorporation of biotinylated poly(ADP-ribose) onto histone proteins. In kind it is biochemical. The procedure: The half maximal inhibitory concentration (IC50) with respect to PARP2 inhibition was determined for each test compound by using BPS Bioscience PARP2 Assay Kit, according to the manufacturer's protocol (Cat #80552, San Diego, CA). This assay measures the incorporation of biotinylated poly(ADP-ribose) onto histone proteins in a 96-well strip well format. This assay is ideal for the determination of IC50 values of known or suspected PARP inhibitors. Briefly, stock solutions of each test compound were prepared in DMSO. Histone strip wells were incubated for 30 minutes at room temperature with 50 μl/well of 1×PARP Buffer to rehydrate the histones. Serial dilutions of either test compound were added to appropriate wells. Diluted PARP enzyme (0.5 Unit/well) was then added to the wells containing compounds, and incubated for 10 minutes at room temperature. […] Three types of control wells were also analyzed; i. A negative control without PARP was prepared to determine background absorbance. ii. […] The reactions were then stopped by adding 50 μl per well of 0.2M HCl or 5% Phosphoric Acid and read the absorbance at 450 nm. The IC50 values were determined by performing non-linear regression analysis fitting velocities and the logarithm of inhibitor concentrations to a sigmoidal dose response with a variable slope model using the GraphPad Prism 6.0 software. […]

T1 sequence (Q9UGN5 whole entry): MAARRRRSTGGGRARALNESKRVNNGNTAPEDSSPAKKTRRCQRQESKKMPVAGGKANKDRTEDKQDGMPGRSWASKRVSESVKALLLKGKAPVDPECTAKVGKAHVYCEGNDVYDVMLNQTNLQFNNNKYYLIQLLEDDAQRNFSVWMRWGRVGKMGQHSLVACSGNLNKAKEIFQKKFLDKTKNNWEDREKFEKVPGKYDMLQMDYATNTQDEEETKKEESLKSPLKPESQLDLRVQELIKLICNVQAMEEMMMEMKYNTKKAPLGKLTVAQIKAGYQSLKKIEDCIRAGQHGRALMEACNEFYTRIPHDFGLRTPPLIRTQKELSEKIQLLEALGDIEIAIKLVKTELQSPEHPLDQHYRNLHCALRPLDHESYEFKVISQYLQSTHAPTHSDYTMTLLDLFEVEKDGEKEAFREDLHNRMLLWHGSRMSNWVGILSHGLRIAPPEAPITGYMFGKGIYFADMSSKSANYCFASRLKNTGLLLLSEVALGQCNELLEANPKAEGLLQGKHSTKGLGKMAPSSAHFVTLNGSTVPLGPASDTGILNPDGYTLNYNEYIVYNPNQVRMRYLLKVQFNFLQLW

With `COC(=O)Nc1nc2cc(-c3cc(Cc4n[nH]c(=O)c5ccccc45)ccc3F)ccc2[nH]1` [Ex 1.1, methyl (5-(2-fluoro-5-((4-oxo-3,4-dihydrophthalazin-1-yl)methyl)phenyl)-1H-benzimidazol-2-yl)carbamate], the IC50 (commonly the concentration that gives 50% inhibition) came out at 0.05 nM.
